Data as given in patent US20220228120A1, “Cardiomyocyte Compositions and Use Thereof” (UNIVERSITY HEALTH NETWORK, priority 2019, published 2022).

How the values were obtained:
Assay type in all cases: cell-based, human
[1] = system: compact ventricular populations; experiment: cTNT and Ki67 flow cytometry after 2 days XAV (day 18)
Experimental: The EBs were dissociated by incubation in Collagenase type 2 (0.5 mg/ml, Worthington) in HANKs buffer overnight at room temperature followed by TrypLE™ for 5 mins at 37° C. The following antibodies were used for staining: anti-SIRPa-PeCy7 (Biolegend, 1:1000), anti-CD36-FITC (BD PharMingen™, 1:200), anti-LDLR-BV421 (BD PharMingen™, 1:100), anti-cardiac isoform of cTNT (ThermoFisher Scientific, 1:2000), or anti-myosin light chain 2 (Abcam,1:1000). For unconjugated primary antibodies, the following secondary antibodies were used for detection: goat anti-mouse IgG-APC (BD PharMingen™, 1:500), or donkey anti-rabbit IgG-PE (Jackson ImmunoResearch, 1:500). Detailed antibody information is described in the Key Resources Table. For cell-surface marker analyses, cells were stained for 30 min at 4° C. in FACS buffer consisting of PBS with 5% fetal calf serum (FCS) (Wisent) and 0.02% sodium azide. For intracellular staining, cells were fixed for 20 mins at 4° C. with 4% PFA in PBS followed by permeabilization using 90% methanol for 20 mins at 4° C. Cells were washed with PBS containing 0.5% BSA (Sigma) and stained with unconjugated primary antibodies in FACS buffer overnight at 4° C. Stained cells were washed with PBS with 0.5% BSA and stained with secondary antibodies in FACS buffer for 30 mins at 4° C. Stained cells were analyzed using the LSR II Flow cytometer (BD PharMingen™). Data were analyzed using FlowJo™ software (Tree Star).
The EBs were dissociated as described above. The following antibodies were used for staining: mouse anti-Ki67 (DAKO, 1:100) and rabbit anti-cardiac isoform of cTNT (ThermoFisher Scientific, 1:500). The following secondary antibodies were used for detection: donkey anti-mouse IgG-APC (BD Pharmigen™, 1:500), or donkey anti-rabbit IgG-PE (Jackson ImmunoResearch, 1:500). Detailed antibody information is described in the Key Resources Table. […] Stained cells were analyzed using the LSR II Flow cytometer (BD PharMingen™). Data were analyzed using FlowJo™ software (Tree Star). […]

[2] = system: hPSC-derived ventricular cardiomyocytes; experiment: Cardiomyocyte proliferation/expansion, factors added day 10 to day 16; conditions: CHIR 1 μM or IGF2 25 ng/ml
Experimental: The EBs were dissociated as described above. The following antibodies were used for staining: mouse anti-Ki67 (DAKO, 1:100) and rabbit anti-cardiac isoform of cTNT (ThermoFisher Scientific, 1:500). The following secondary antibodies were used for detection: donkey anti-mouse IgG-APC (BD Pharmigen™, 1:500), or donkey anti-rabbit IgG-PE (Jackson ImmunoResearch, 1:500). Detailed antibody information is described in the Key Resources Table. Cells were fixed for 20 mins at 4 C with 4% PFA in PBS followed by permeabilization using 90% methanol for 20 mins at 4° C. Cells were washed with PBS containing 0.5% BSA (Sigma) and stained with unconjugated primary antibodies in FACS buffer overnight at 4° C. Stained cells were washed with PBS with 0.5% BSA and stained with secondary antibodies in FACS buffer for 30 mins at 4° C. Stained cells were analyzed using the LSR II Flow cytometer (BD PharMingen™). Data were analyzed using FlowJo™ software (Tree Star). At day 5, the EBs were transferred to StemPro™-34 with rhVEGF (5 ng/ml) for another 5 days and then to DMEM high glucose (Life Technologies) with 0.5 mg/mL human serum albumin (Sigma), ascorbic acid, transferrin, insulin (10 ng/ml, Sigma), CHIR (1 μM, Bio-Techne), and IGF2 (25 ng/ml, Bio-Techne) from day 10 to day 16. […] The cells were then harvested, counted, and analyzed for expression of compact and trabecular genes by RT-qPCR. […]

[3] = system: HEY2, MYCN, ANF, BMP10 expression; experiment: RT-qPCR of compact and trabecular markers after 6 days with factors; conditions: factors day 10-16
Experimental: (§1) Total RNA from samples was isolated using RNAqueous™-micro Kit including RNase-free DNase treatment (invitrogen). RNA from dissected ventricular and atrial tissue of human fetal hearts was isolated using the TRIzol® method (ThermoFisher) and treated with DNase (Ambion®). Isolated RNA was reverse transcribed into cDNA using oligo (dT) primers and random hexamers and iScript™ Reverse Transcriptase (ThermoFisher). QRT-PCR was performed on an EP Real-Plex MasterCycler® (Eppendorf®) using QuantiFast® SYBR Green PCR kit (QIAGEN). The copy number of each gene relative to the house keeping gene TBP.
For these studies, we used our previously published protocol to generate cardiomyocytes (Lee, supra). […] Using this timeframe as an indication of the proliferative stage of ventricular development, between days 10 and 16 of differentiation, we added the small molecule GSK-3 inhibitor CHIR-99021 (“CHIR”; a WNT pathway agonist), or IGF2, or both, to the day 10 cell population (FIG. 1D). As a control, we added neuregulin 1 (NRG) to the cultures as it promotes the development of the trabecular myocardium in the developing heart (see, e.g., Del Monte-Nieto et al., Nature (2018) 557(7705):439-45; and Odiete et al., Circ Res. (2012) 111(10):1376-85). The cells were cultured with these factors for 6 days. The cells were then harvested, counted, and analyzed for expression of compact and trabecular genes by RT-qPCR. […] The addition of both factors promoted the greatest expansion in cell number, resulting in a 2-fold increase. […] It had little effect on HEY2, which was already expressed at reasonable levels within the population. IGF2 signaling had no effect on the expression of these genes. Addition of NRG reduced the expression of HEY2 and increased the expression of ANF, indicative of specification of a trabecular fate.

[4] = system: CD36^+SIRPA^+ compact cardiomyocytes; experiment: Flow cytometric analyses of CD36 and SIRPA expression
Experimental: The EBs were dissociated by incubation in Collagenase type 2 (0.5 mg/ml, Worthington) in HANKs buffer overnight at room temperature followed by TrypLE™ for 5 mins at 37° C. The following antibodies were used for staining: anti-SIRPa-PeCy7 (Biolegend, 1:1000), anti-CD36-FITC (BD PharMingen™, 1:200), anti-LDLR-BV421 (BD PharMingen™, 1:100), anti-cardiac isoform of cTNT (ThermoFisher Scientific, 1:2000), or anti-myosin light chain 2 (Abcam,1:1000). For unconjugated primary antibodies, the following secondary antibodies were used for detection: goat anti-mouse IgG-APC (BD PharMingen™, 1:500), or donkey anti-rabbit IgG-PE (Jackson ImmunoResearch, 1:500). Detailed antibody information is described in the Key Resources Table. […] Stained cells were analyzed using the LSR II Flow cytometer (BD PharMingen™). Data were analyzed using FlowJo™ software (Tree Star).
To evaluate the capacity of the day 18 compact cardiomyocytes to undergo FAO, we analyzed them for expression of the fatty acid transporter CD36, which is essential for transporting fatty acid into cells (FIG. 2B). Given that most mature cardiomyocytes in the human heart express CD36, flow cytometric analyses of this transporter would provide rapid quantitative measure of the maturation status of these cells.

[5] = system: FAO-related genes; experiment: RT-qPCR of FAO-related, mitochondrial and maturation genes in day 32 compact cardiomyocytes
Experimental: as §1

[6] = system: hPSC-derived ventricular cardiomyocytes; experiment: HEY2/ANF immunostaining of day 16 ventricular population; conditions: day 16 population
Experimental: The EBs were dissociated as described above and the cells were plated onto 24 well culture dishes pre-coated with Matrigel™ (25% v/v, BD PharMingen™). Cells were cultured for 2-3 days and were fixed with 4% PFA in PBS for 15 min at room temperature. Cells were permeabilized and blocked with PBS containing 5% donkey serum, 0.1% TritonX™. The following antibodies were used for staining: mouse anti-cardiac isoform of cTNT (ThermoFisher Scientific, 1:200), rabbit anti-human HEY2 (Proteintech, 1:100), mouse anti-human ANF (Abcam, 1:100), rabbit anti-human cTNT (Abcam, 1:200), or rabbit anti-human CD90 (Abcam, 1:200). For detecting unconjugated primary antibodies, the following secondary antibodies were used: donkey anti-mouse IgG-Alexa Fluor™ 488 (ThermoFisher, 1:500), donkey anti-rabbit IgG-Alexa Fluor™ 555 (ThermoFisher, 1:500), donkey anti-rabbit IgG-Alexa488 (ThermoFisher, 1:500), donkey anti-mouse IgG-Alexa Fluor™ 555 (ThermoFisher, 1:500). Detailed antibody information is described in the Key Resources Table. Cells were stained with primary antibodies in staining buffer consisting of PBS with 0.1% TritonX, and 5% donkey serum overnight at 4° C. The stained cells were washed with PBS. […] Stained cells were analyzed using an EVOS Microscope (ThermoFisher) and Zeiss LSM700 confocal microscope (Zeiss).

Cc1c[nH]c(-c2cnc(NCCNc3ccc(C#N)cn3)nc2-c2ccc(Cl)cc2Cl)n1 [CHIR, 6-((2-((4-(2,4-Dichlorophenyl)-5-(4-methyl-1H-imidazol-2-yl)pyrimidin-2-yl)amino)ethyl)amino)nicotinonitrile]
proportion of cTNT^+ cells in the population ([1]; XAV(−) vs. ventricular control, day 18): reduction
proportion of Ki67^−cTNT^+ cardiomyocytes detected at day 16 [2]: significant increase
expression of ANF [3]: decrease
expression of BMP10 [3]: decrease
expression of HEY2 [3]: little effect
expression of MYCN [3]: significant increase
expression of the fatty acid transporter CD36 [3]: reduced
expression of the glucose transporter GLUT1 [3]: increased

CC(C)(Sc1ccc(CCN(CCCCC2CCCCC2)C(=O)NC2CCCCC2)cc1)C(=O)O [GW7647]
size of CD36+ population detected at day 32 ([4]; 1 μM added to day 18 CMs): significant increase

O=c1[nH]c(-c2ccc(C(F)(F)F)cc2)nc2c1CSCC2 [XAV, 2-(4-(trifluoromethyl)phenyl)-7,8-dihydro-5H-thiopyrano[4,3-d]pyrimidin-4-ol]
proportion of Ki67^+ cells in the population ([1]; XAV following the CHIR/IGF2-induced proliferative stage): significantly reduced
proportion of the non-cardiomyocytes ([1]; XAV for 2 days after CHIR/IGF2): reduction

CCCCCCCCCCCCCCCC(=O)O [palmitate]
expression of mitochondrial/electron transport chain genes ATP5A1, COX7A1, CKMT2 [5]: no effect
expression of FAO pathway components CD36, FABP3, CPT1B, MLYCD ([5]; vs untreated populations): no effect
level of ACC2 ([5]; vs untreated populations): no effect

N[C@@H](Cc1cc(I)c(Oc2ccc(O)c(I)c2)c(I)c1)C(=O)O [thyroid hormone (T3), triiodothyronine]
effect on CD36 expression among other pathways tested ([4]; only observed in the presence of PPARα signaling): largest effect

insulin-like growth factor 2 [IGF2]
proportion of Ki67^−cTNT^+ cardiomyocytes detected at day 16 [2]: significant increase
expression of ANF [3]: no effect
expression of BMP10 [3]: no effect
expression of HEY2 [3]: no effect
expression of MYCN [3]: no effect

neuregulin 1 [NRG]
expression of ANF [3]: increased
expression of HEY2 [3]: reduced
ANF+ cells by immunostaining [6]: presence
HEY+ compact cells by immunostaining [6]: lack
